Values of other authors as cited in publication PMC11843658 (Journal of Enzyme Inhibition and Medicinal Chemistry, 2025).

Test system: Kasumi-1 xenograft
Parameters: method as in PMID 32551003
Details: Kasumi-1 xenograft model of acute myeloid leukaemia; cited from earlier work

In the case of `CC/C(=C\c1ccccc1)[C@@H]1C[C@H]1NC1CC2(C1)CN(CCO)C2` [Compound 5], the “anticancer effects in xenograft model” value is given as “potent anticancer effects”.
